Laboratory results from article PMC5676250, “Cholesterol-directed nanoparticle assemblies based on single amino acid peptide mutations activate cellular uptake and decrease tumor volume” (Chemical Science, 2017).
Where two headings read alike, the source gives them in different places. Residues, ends and D or L forms follow the SMILES beside them. No end group written: not given here. *: point of attachment. X1 = CC(C)CCC[C@@H](C)[C@H]1CC[C@H]2[C@@H]3CC=C4C[C@@H](OCC(=O)*)CC[C@]4(C)[C@H]3CC[C@]12C

Assays:
[1] = system: SKOV-3 ovarian cancer cells; conditions: 24 h
Procedure: SKOV-3 cells were seeded in a 35 mm petri dish with a glass cover slide and allowed […]

in vitro = conditions: mouse, serum, pH 8.2
Procedure: A 1.5 mL mixture consisting of 30 μL mouse serum, 750 μL of peptides (1 mg mL^–1) and 1470 μL of digestion buffer (pH 8.2, 50 mM Tris, 20 mM CaCl2) was incubated at 37 °C for 16 h. Peptides treated with digestion buffer served as controls. Aliquots of 400 μL were withdrawn from the mixture and quenched with 400 μL of 1% trifluoroacetic acid (TFA) solution at 1 h, 8 h and 16 h. The quenched solution was analysed by reverse-phase high performance liquid chromatography (RP-HPLC). […]
to adhere overnight at 37 °C under 5% CO2. The cell culture medium was then removed and replaced with fresh McCoy’s 5A medium containing HAL-2 (10 μM) or HAL-C (10 μM) for 1 h. After the medium was removed and the cells were washed with PBS (1 mL × 3 times), 1 mL of PBS containing 4 μL staining solution was added for 1 h.
The cells were then washed with PBS (1 mL × 3 times) before imaging. Cell fluorescence images were obtained with a confocal laser scanning microscope. […] for Tubulin-Trakcer Red: excitation: 561 nm, emission collected: 570 -620 nm; Blue channel for DAPI: excitation: 405 nm, emission collected: 425 -475 nm. (Tubulin-Trakcer Red were purchased from Beyotime Biotechnology) […]
SKOV-3 cells were seeded in a 35 mm petri dish with a glass cover slide and allowed to adhere overnight at 37 °C under 5% CO2. […] Cell fluorescence images were obtained with a confocal laser scanning microscope. […]
A 1.5 mL mixture consisting of 30 μL serum, 750 μL of peptides (1 mg/mL) , and 1470 μL of digestion buffer (pH 8.2, 50 mM Tris, 20 mM CaCl 2 ) was incubated at 37 °C for 16 h. […] The quenched solution was analyzed by reverse -phase […]
In vivo antitumor studies: When the tumors reached a mean volume of 50 mm 3 after inoculation of SKOV-3 cells, the mice were randomly separated into three groups (N=3/group): (1) negative control (PBS); (2) HAL-2; (3) HAL-C. […] During therapy, the tumor volumes and body weights were measured every two days. Length and width of tumors were measured individually using a Vernier caliper. Tumor volumes were calculated using the following formula: tumor volume = length × width 2 × 0.5. […]

SKOV-3 cells = test: MTT assay of endocytosis inhibitors, 40 min; type: cell-based
Procedure: The cytotoxicity was tested using an MTT assay. […] A combined solution of 5 mg mL^-1 MTT/PBS (10 μL per well) was added to each well of the 96-well plate assay, and the cells were incubated for an additional 4 hours. Formazan extraction was performed with DMSO and quantified colorimetrically using a Synergy H4 Hybrid Microplate reader (Biotek, USA), which was used to measure the OD 490 nm (absorbance value). The following formula was used to calculate the viability of cell growth: viability (%) = (mean of absorbance value of treatment group-blank/mean absorbance value of control-blank) × 100 (MTT was purchased from Sigma-Aldrich).

[2] = MTT, 40 min incubation, tested inhibitor concentrations (Fig. S17)

CSCC[C@H](NC(=O)[C@H](Cc1c[nH]c2ccccc12)NC(=O)[C@H](CCCCN)NC(=O)CN)C(=O)N[C@@H](CO)C(=O)N[C@@H](CC(C)C)C(=O)N[C@@H](CC(C)C)C(=O)N[C@@H](CCCCN)C(=O)N[C@@H](Cc1c[nH]cn1)C(=O)N[C@@H](CCCCNC(=O)CO[C@H]1CC[C@@]2(C)C(=CC[C@H]3[C@@H]4CC[C@H]([C@H](C)CCCC(C)C)[C@@]4(C)CC[C@@H]32)C1)C(=O)N[C@@H](CC(C)C)C(=O)N[C@@H](CCCCN)C(N)=O [HAL-D] (H-GKWMSLLKHK(X1)LK-NH2)
IC50 [1]: 16.2 ± 0.1 µM

GKWMSLLKHILK-NH2 [HAL-2]
remaining at 1 h (in vitro): 55.4%
remaining at 8 h (in vitro): 29.4%
remaining at 16 h (in vitro): 11.2%
IC50 [1]: 54.1 ± 0.5 µM

CN(C)CCCN1c2ccccc2Sc2ccc(Cl)cc21 [CPZ, chlorpromazine]
decrease of SKOV-3 cell viability (SKOV-3 cells; [2]): 38%

methyl-beta cyclodextrin [MBCD]
decrease of SKOV-3 cell viability (SKOV-3 cells): no significant effects

CC[C@H](C)[C@H](NC(=O)[C@H](Cc1c[nH]cn1)NC(=O)[C@H](CCCCN)NC(=O)[C@H](CC(C)C)NC(=O)[C@H](CCCCNC(=O)CO[C@H]1CC[C@@]2(C)C(=CC[C@H]3[C@@H]4CC[C@H]([C@H](C)CCCC(C)C)[C@@]4(C)CC[C@@H]32)C1)NC(=O)[C@H](CO)NC(=O)[C@H](CCSC)NC(=O)[C@H](Cc1c[nH]c2ccccc12)NC(=O)[C@H](CCCCN)NC(=O)CN)C(=O)N[C@@H](CC(C)C)C(=O)N[C@@H](CCCCN)C(N)=O [HAL-C] (H-GKWMSK(X1)LKHILK-NH2)
IC50 [1]: 12.7 ± 0.1 µM

CC[C@H](C)[C@H](NC(=O)[C@H](Cc1c[nH]cn1)NC(=O)[C@H](CCCCNC(=O)CO[C@H]1CC[C@@]2(C)C(=CC[C@H]3[C@@H]4CC[C@H]([C@H](C)CCCC(C)C)[C@@]4(C)CC[C@@H]32)C1)NC(=O)[C@H](CC(C)C)NC(=O)[C@H](CC(C)C)NC(=O)[C@H](CO)NC(=O)[C@H](CCSC)NC(=O)[C@H](Cc1c[nH]c2ccccc12)NC(=O)[C@H](CCCCN)NC(=O)CN)C(=O)N[C@@H](CC(C)C)C(=O)N[C@@H](CCCCN)C(N)=O [HAL-B] (H-GKWMSLLK(X1)HILK-NH2)
IC50 [1]: 24.6 ± 0.1 µM

N=C(N)NC(=O)c1nc(Cl)c(N)nc1N [AM, amiloride]
decrease of SKOV-3 cell viability (SKOV-3 cells; [2]): 20%
